Measured values as given in patent publication US20140249135A1, “PIM KINASE INHIBITORS AND METHODS OF THEIR USE” (NOVARTIS AG, priority 2007, published 2014).

Columns and labels:
Type in all cases: biochemical
[1] = molecular target: Pim1 kinase (Homo sapiens, UniProt P11309); test: Pim1 ATP depletion assay; conditions: Pim1 ATP depletion assay; read-out: PIM1 IC50;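 further: Luciferase-luciferin luminescence readout of residual ATP after PIM1 transfers phosphate to a peptide substrate, 40 µM ATP added, reaction run to roughly half ATP consumption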
[2] = molecular target: Pim2 kinase (Homo sapiens, UniProt Q9P1W9); test: Pim2 ATP depletion assay; conditions: read-out: PIM2 IC50;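 further: Luciferase-based luminescent readout of ATP remaining after PIM2 phosphorylates a BAD peptide, final 5 nM enzyme, 4 µM ATP, 10 µM peptide, 2.5% DMSO, run to roughly half ATP consumption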
[3] = molecular target: Pim3 kinase (Homo sapiens, UniProt Q86V86); test: Pim3 ATP depletion assay; conditions: read-out: PIM3 IC50

Sequence of Pim2 kinase (Q9P1W9 whole entry): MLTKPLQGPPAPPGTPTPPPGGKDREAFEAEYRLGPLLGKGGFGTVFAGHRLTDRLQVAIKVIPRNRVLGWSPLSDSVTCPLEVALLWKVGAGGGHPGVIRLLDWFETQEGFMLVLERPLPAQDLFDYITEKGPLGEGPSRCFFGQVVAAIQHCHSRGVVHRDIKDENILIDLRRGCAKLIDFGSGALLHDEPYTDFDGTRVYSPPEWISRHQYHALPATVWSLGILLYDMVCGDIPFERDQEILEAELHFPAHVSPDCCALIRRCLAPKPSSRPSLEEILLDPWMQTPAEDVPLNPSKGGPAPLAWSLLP
Sequence of Pim1 kinase (P11309 whole entry): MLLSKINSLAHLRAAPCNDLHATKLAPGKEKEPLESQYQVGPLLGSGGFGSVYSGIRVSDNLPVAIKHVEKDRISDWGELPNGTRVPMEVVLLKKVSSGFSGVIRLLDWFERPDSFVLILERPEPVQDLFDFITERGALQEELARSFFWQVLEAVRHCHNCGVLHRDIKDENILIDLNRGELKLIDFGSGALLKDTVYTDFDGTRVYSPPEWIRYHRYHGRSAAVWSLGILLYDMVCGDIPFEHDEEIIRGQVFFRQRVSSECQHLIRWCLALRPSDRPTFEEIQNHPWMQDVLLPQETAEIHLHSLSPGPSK

IC50 [1] [µM]	IC50 [2] [µM]	IC50 [3] [µM]	Structure (SMILES)
< 1	< 1	< 1	Nc1cc(-c2ccncc2NC(=O)c2nc(-c3c(F)cccc3F)ccc2N)ccn1 [Example 617, 3-amino-N-(2′-amino-4,4′-bipyridin-3-yl)-6-(2,6-difluorophenyl)pyridine-2-carboxamide]
< 1	< 1	< 1	N#Cc1cc(-c2ccncc2NC(=O)c2nc(-c3c(F)cccc3F)ccc2N)ccn1 [Example 618, 3-amino-N-(2′-cyano-4,4′-bipyridin-3-yl)-6-(2,6-difluorophenyl)pyridine-2-carboxamide]
< 1	< 1	< 1	Cc1cc(-c2ccncc2NC(=O)c2nc(-c3c(F)cccc3F)c(F)cc2N)cc(N)n1 [Example 619, 3-amino-N-(2′-amino-6′-methyl-4,4′-bipyridin-3-yl)-6-(2,6-difluorophenyl)-5-fluoropyridine-2-carboxamide]
< 1	< 1	< 1	CCc1cc(-c2ccncc2NC(=O)c2nc(-c3c(F)cccc3F)ccc2N)cc(N)n1 [Example 620, 3-Amino-6-(2,6-difluoro-phenyl)-pyridine-2-carboxylic acid (6′-amino-2′-ethyl-[4,4′]bipyridinyl-3-yl)-amide]
< 1	< 1	< 1	Nc1ccc(-c2c(F)cccc2F)nc1C(=O)Nc1cnccc1-c1cc(Cl)nc(C(F)(F)F)c1 [Example 621, 3-amino-N-[2′-chloro-6′-(trifluoromethyl)-4,4′-bipyridin-3-yl]-6-(2,6-difluorophenyl)pyridine-2-carboxamide]
< 1	< 1	< 1	COc1cc(N)nc(-c2ccncc2NC(=O)c2nc(-c3c(F)cccc3F)ccc2N)c1 [Example 622, 3-Amino-6-(2,6-difluoro-phenyl)-pyridine-2-carboxylic acid (6-amino-4-methoxy-[2,4′]bipyridinyl-3′-yl)-amide]
< 1	< 1	< 1	Cc1cc(-c2ccncc2NC(=O)c2nc(-c3c(F)cccc3F)ccc2N)cc(N)n1 [Example 623, 3-amino-N-(2′-amino-6′-methyl-4,4′-bipyridin-3-yl)-6-(2,6-difluorophenyl)pyridine-2-carboxamide]
< 1	< 1	< 1	Cc1cc(-c2ccncc2NC(=O)c2nc(-c3ccccc3F)ccc2N)cc(N)n1 [Example 624, 3-amino-N-(2′-amino-6′-methyl-4,4′-bipyridin-3-yl)-6-(2-fluorophenyl)pyridine-2-carboxamide]
< 1	< 1	< 1	Nc1cncc(-c2ccncc2NC(=O)c2nc(-c3ccccc3F)ccc2N)n1 [Example 625, 3-amino-N-[4-(6-amino-pyrazin-2-yl)pyridin-3-yl]-6-(2-fluorophenyl)pyridine-2-carboxamide]
< 1	< 1	< 1	Cc1cc(-c2ccncc2NC(=O)c2nc(-c3ccccc3F)ccc2N)nc(N)n1 [Example 626, 3-amino-N-[4-(2-amino-6-methylpyrimidin-4-yl)-pyridin-3-yl]-6-(2-fluoro-phenyl)pyridine-2-carboxamide]
< 1	< 1	< 1	Nc1cc(-c2ccncc2NC(=O)c2nc(-c3ccccc3F)ccc2N)nc(N)n1 [Example 627, 3-amino-N-[4-(2,6-diaminopyrimidin-4-yl)pyridin-3-yl]-6-(2-fluorophenyl)pyridine-2-carboxamide]
< 1	< 1	< 1	Nc1nccc(-c2ccncc2NC(=O)c2nc(-c3c(F)cccc3F)ccc2N)n1 [Example 628, 3-amino-N-[4-(2-aminopyrimidin-4-yl)pyridin-3-yl]-6-(2,6-difluorophenyl)pyridine-2-carboxamide]
< 1	< 1	< 1	Nc1ccc(-c2c(F)cccc2F)nc1C(=O)Nc1cnccc1-c1cccnc1N [Example 630, 3-amino-N-(2-amino-3,4′-bipyridin-3′-yl)-6-(2,6-difluorophenyl)pyridine-2-carboxamide]
< 1	< 1	< 1	N[C@H]1CCCN(c2ccncc2NC(=O)c2cccc(-c3nccs3)n2)C1 [Example 631, N-{4-[(3S)-3-amino-piperidin-1-yl]pyridin-3-yl}-6-(1,3-thiazol-2-yl)pyridine-2-carboxamide]
< 1	< 1	< 1	Nc1ccc(-c2nccs2)nc1C(=O)Nc1cnccc1N1CCC[C@H](N)C1 [Example 632, 3-amino-N-{4-[(3S)-3-aminopiperidin-1-yl]pyridin-3-yl}-6-(1,3-thiazol-2-yl)-pyridine-2-carboxamide]
< 1	< 1	< 1	Nc1cc(-c2ccncc2NC(=O)c2nc(C3CCCCC3)ccc2N)nc(C(F)(F)F)n1 [Example 633, 3-Amino-6-cyclohexyl-pyridine-2-carboxylic acid [4-(6-amino-2-trifluoro-methyl-pyrimidin-4-yl)-pyridin-3-yl]-amide]
< 1	< 1	< 1	CCC(CC)c1ccc(N)c(C(=O)Nc2cnccc2N2CCC[C@H](N)C2)n1 [Example 634, 3-Amino-6-(1-ethyl-propyl)-pyridine-2-carboxylic acid (3-amino-3,4,5,6-tetrahydro-2H-[1,4′]bipyridinyl-3′-yl)-amide]
< 1	< 1	< 1	N[C@H]1CCCN(c2ccncc2NC(=O)c2cccc(C3CCCCC3)n2)C1 [Example 635, 6-Cyclohexyl-pyridine-2-carboxylic acid (3-amino-3,4,5,6-tetrahydro-2H-[1,4′]bipyridinyl-3′-yl)-amide]
< 1	< 1	< 1	Cc1ccc(N)c(C(=O)Nc2cnccc2N2CCC[C@H](N)C2)n1 [Example 637, 3-amino-N-{4-[(3S)-3-aminopiperidin-1-yl]pyridin-3-yl}-6-methylpyridine-2-carboxamide]
< 1	< 1	< 1	Nc1ccc(C2CC2)nc1C(=O)Nc1cnccc1N1CCC[C@H](N)C1 [Example 638, 3-amino-N-{4-[(3S)-3-aminopiperidin-1-yl]pyridin-3-yl}-6-cyclopropyl-pyridine-2-carboxamide]
< 1	< 1	< 1	CCc1ccc(N)c(C(=O)Nc2cnccc2N2CCC[C@H](N)C2)n1 [Example 639, 3-amino-N-{4-[(3S)-3-aminopiperidin-1-yl]pyridin-3-yl}-6-ethylpyridine-2-carboxamide]
< 1	< 1	< 1	Nc1cc(-c2ccncc2NC(=O)c2nc(-c3nccs3)ccc2N)cc(C(F)(F)F)n1 [Example 640, 3-amino-N-[2′-amino-6′-(trifluoromethyl)-4,4′-bipyridin-3-yl]-6-(1,3-thiazol-2-yl)pyridine-2-carboxamide]
< 1	< 1	< 1	Cc1cc(-c2ccncc2NC(=O)c2nc(-c3nccs3)ccc2N)cc(N)n1 [Example 641, 3-amino-N-(2′-amino-6′-methyl-4,4′-bipyridin-3-yl)-6-(1,3-thiazol-2-yl)pyridine-2-carboxamide]
< 1	< 1	< 1	Nc1cc(-c2ccncc2NC(=O)c2nc(-c3nccs3)ccc2N)nc(C(F)(F)F)n1 [Example 642, 3-amino-N-{4-[6-amino-2-(trifluoromethyl)pyrimidin-4-yl]pyridin-3-yl}-6-(1,3-thiazol-2-yl)pyridine-2-carboxamide]
< 1	< 1	< 1	Cc1nc(N)cc(-c2ccncc2NC(=O)c2nc(-c3nccs3)ccc2N)n1 [Example 643, 3-amino-N-[4-(6-amino-2-methylpyrimidin-4-yl)pyridin-3-yl]-6-(1,3-thiazol-2-yl)pyridine-2-carboxamide]
< 1	< 1	< 1	Nc1ccc(C23CC4CC(CC(C4)C2)C3)nc1C(=O)Nc1cnccc1N1CCC[C@H](N)C1 [Example 645, 6-Adamantan-1-yl-3-amino-pyridine-2-carboxylic acid (3-amino-3,4,5,6-tetrahydro-2H-[1,4′]bipyridinyl-3′-yl)-amide]
< 1	< 1	< 1	Nc1cc(-c2ccncc2NC(=O)c2cccc(-c3nccs3)n2)nc(C(F)(F)F)n1 [Example 647, N-{4-[6-amino-2-(trifluoro-methyl)pyrimidin-4-yl]-pyridin-3-yl}-6-(1,3-thiazol-2-yl)pyridine-2-carboxamide]
< 1	< 1	< 1	CC(C)NC(=O)c1ccc(F)c(-c2ccc(N)c(C(=O)Nc3cnccc3N3CCC[C@H](O)C3)n2)c1 [Example 651, 3-Amino-6-(2-fluoro-5-isopropylcarbamoyl-phenyl)-pyridine-2-carboxylic acid (3-hydroxy-3,4,5,6-tetrahydro-2H-[1,4′]bipyridinyl-3′-yl)-amide]
< 1	< 1	< 1	CC(C)Oc1ccc(F)c(-c2ccc(N)c(C(=O)Nc3cnccc3N3CCC[C@H](O)C3)n2)c1F [Example 652, 3-Amino-6-(2,6-difluoro-3-isopropoxy-phenyl)-pyridine-2-carboxylic acid (3-hydroxy-3,4,5,6-tetrahydro-2H-[1,4′]bi-pyridinyl-3′-yl)-amide]
< 1	< 1	< 1	Nc1ccc(-c2c(F)cccc2F)nc1C(=O)Nc1cnccc1N1CCC[C@H](O)C1 [Example 653, 3-Amino-6-(2,6-difluoro-phenyl)-pyridine-2-carboxylic acid (3-hydroxy-3,4,5,6-tetra-hydro-2H-[1,4′]bipyridinyl-3′-yl)-amide]
